{
  "source": "the supplement of paper PMC10307832",
  "test_in_all_cases": "relative viability (nuclei count vs DMSO), 5 days (fraction); higher = more cells survive",
  "key": {"ChaGo-K-1": {"tested_on": "ChaGo-K-1", "outline": "(§1)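 Dosing by pin tool came one day after lung cancer cell lines were seeded in 1536-well plates, using either one drug or a fixed anchor-drug dose plus five library-drug doses (not always all listed) in √10 steps. After 5 days, nuclei were counted on 4× images. Relative viability is treated-well nuclei count divided by vehicle-well nuclei count, and values are medians of duplicate plates.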"}, "EMC-BAC-2": {"tested_on": "EMC-BAC-2", "outline": "as §1"}, "EPLC-272H": {"tested_on": "EPLC-272H", "outline": "as §1"}, "H3255": {"tested_on": "H3255", "outline": "as §1"}, "HCC-44": {"tested_on": "HCC-44", "outline": "as §1"}, "HCC-827": {"tested_on": "HCC-827", "outline": "as §1"}, "LCLC-103H": {"tested_on": "LCLC-103H", "outline": "as §1"}, "LCLC-97TM1": {"tested_on": "LCLC-97TM1", "outline": "as §1"}, "NCI-H1355": {"tested_on": "NCI-H1355", "outline": "as §1"}, "NCI-H1395": {"tested_on": "NCI-H1395", "outline": "as §1"}, "NCI-H1651": {"tested_on": "NCI-H1651", "outline": "as §1"}, "NCI-H1793": {"tested_on": "NCI-H1793", "outline": "as §1"}, "NCI-H1944": {"tested_on": "NCI-H1944", "outline": "as §1"}, "NCI-H2023": {"tested_on": "NCI-H2023", "outline": "as §1"}, "NCI-H2085": {"tested_on": "NCI-H2085", "outline": "as §1"}, "NCI-H2087": {"tested_on": "NCI-H2087", "outline": "as §1"}, "NCI-H2405": {"tested_on": "NCI-H2405", "outline": "as §1"}, "NCI-H322M": {"tested_on": "NCI-H322M", "outline": "as §1"}, "NCI-H520": {"tested_on": "NCI-H520", "outline": "as §1"}, "NCI-H650": {"tested_on": "NCI-H650", "outline": "as §1"}, "SK-MES-1": {"tested_on": "SK-MES-1", "outline": "as §1"}, "UMC-11": {"tested_on": "UMC-11", "outline": "as §1"}},
  "data": [
    {"molecule": "O=C(O)c1ccc(-c2c[nH]c3ncc(-c4ccccc4)cc23)cc1C1CCCC1", "note": "+ Nc1ncn([C@H]2C[C@H](O)[C@@H](CO)O2)c(=O)n1 [Decitabine] (partner 2 µM)", "values": [
      {"measurement": "relative viability", "setting": "ChaGo-K-1; first compound 0.04 µM", "result": 0.515},
      {"measurement": "relative viability", "setting": "ChaGo-K-1; first compound 0.1265 µM", "result": 0.501},
      {"measurement": "relative viability", "setting": "ChaGo-K-1; first compound 0.4 µM", "result": 0.484},
      {"measurement": "relative viability", "setting": "ChaGo-K-1; first compound 1.265 µM", "result": 0.478},
      {"measurement": "relative viability", "setting": "EMC-BAC-2; first compound 0.04 µM", "result": 0.948},
      {"measurement": "relative viability", "setting": "EMC-BAC-2; first compound 0.1265 µM", "result": 1.06},
      {"measurement": "relative viability", "setting": "EMC-BAC-2; first compound 0.4 µM", "result": 1.01},
      {"measurement": "relative viability", "setting": "EMC-BAC-2; first compound 1.265 µM", "result": 0.909},
      {"measurement": "relative viability", "setting": "EPLC-272H; first compound 0.04 µM", "result": 0.351},
      {"measurement": "relative viability", "setting": "EPLC-272H; first compound 0.1265 µM", "result": 0.402},
      {"measurement": "relative viability", "setting": "EPLC-272H; first compound 0.4 µM", "result": 0.388},
      {"measurement": "relative viability", "setting": "EPLC-272H; first compound 1.265 µM", "result": 0.277},
      {"measurement": "relative viability", "setting": "H3255; first compound 0.04 µM", "result": 0.64},
      {"measurement": "relative viability", "setting": "H3255; first compound 0.1265 µM", "result": 0.477},
      {"measurement": "relative viability", "setting": "H3255; first compound 0.4 µM", "result": 0.513},
      {"measurement": "relative viability", "setting": "H3255; first compound 1.265 µM", "result": 0.495},
      {"measurement": "relative viability", "setting": "HCC-44; first compound 0.04 µM", "result": 0.973},
      {"measurement": "relative viability", "setting": "HCC-44; first compound 0.1265 µM", "result": 0.95},
      {"measurement": "relative viability", "setting": "HCC-44; first compound 0.4 µM", "result": 0.962},
      {"measurement": "relative viability", "setting": "HCC-44; first compound 1.265 µM", "result": 0.864},
      {"measurement": "relative viability", "setting": "HCC-827; first compound 0.04 µM", "result": 0.263},
      {"measurement": "relative viability", "setting": "HCC-827; first compound 0.1265 µM", "result": 0.316},
      {"measurement": "relative viability", "setting": "HCC-827; first compound 0.4 µM", "result": 0.273},
      {"measurement": "relative viability", "setting": "HCC-827; first compound 1.265 µM", "result": 0.337},
      {"measurement": "relative viability", "setting": "LCLC-103H; first compound 0.04 µM", "result": 0.767},
      {"measurement": "relative viability", "setting": "LCLC-103H; first compound 0.1265 µM", "result": 0.789},
      {"measurement": "relative viability", "setting": "LCLC-103H; first compound 0.4 µM", "result": 0.746},
      {"measurement": "relative viability", "setting": "LCLC-103H; first compound 1.265 µM", "result": 0.667},
      {"measurement": "relative viability", "setting": "LCLC-97TM1; first compound 0.04 µM", "result": 0.254},
      {"measurement": "relative viability", "setting": "LCLC-97TM1; first compound 0.1265 µM", "result": 0.226},
      {"measurement": "relative viability", "setting": "LCLC-97TM1; first compound 0.4 µM", "result": 0.207},
      {"measurement": "relative viability", "setting": "LCLC-97TM1; first compound 1.265 µM", "result": 0.195},
      {"measurement": "relative viability", "setting": "NCI-H1355; first compound 0.04 µM", "result": 0.337},
      {"measurement": "relative viability", "setting": "NCI-H1355; first compound 0.1265 µM", "result": 0.331},
      {"measurement": "relative viability", "setting": "NCI-H1355; first compound 0.4 µM", "result": 0.408},
      {"measurement": "relative viability", "setting": "NCI-H1355; first compound 1.265 µM", "result": 0.307},
      {"measurement": "relative viability", "setting": "NCI-H1395; first compound 0.04 µM", "result": 0.727},
      {"measurement": "relative viability", "setting": "NCI-H1395; first compound 0.1265 µM", "result": 0.697},
      {"measurement": "relative viability", "setting": "NCI-H1395; first compound 0.4 µM", "result": 0.731},
      {"measurement": "relative viability", "setting": "NCI-H1395; first compound 1.265 µM", "result": 0.728},
      {"measurement": "relative viability", "setting": "NCI-H1651; first compound 0.04 µM", "result": 0.477},
      {"measurement": "relative viability", "setting": "NCI-H1651; first compound 0.1265 µM", "result": 0.616},
      {"measurement": "relative viability", "setting": "NCI-H1651; first compound 0.4 µM", "result": 0.57},
      {"measurement": "relative viability", "setting": "NCI-H1651; first compound 1.265 µM", "result": 0.54},
      {"measurement": "relative viability", "setting": "NCI-H1793; first compound 0.04 µM", "result": 0.434},
      {"measurement": "relative viability", "setting": "NCI-H1793; first compound 0.1265 µM", "result": 0.527},
      {"measurement": "relative viability", "setting": "NCI-H1793; first compound 0.4 µM", "result": 0.519},
      {"measurement": "relative viability", "setting": "NCI-H1793; first compound 1.265 µM", "result": 0.334},
      {"measurement": "relative viability", "setting": "NCI-H1944; first compound 0.04 µM", "result": 0.448},
      {"measurement": "relative viability", "setting": "NCI-H1944; first compound 0.1265 µM", "result": 0.437},
      {"measurement": "relative viability", "setting": "NCI-H1944; first compound 0.4 µM", "result": 0.423},
      {"measurement": "relative viability", "setting": "NCI-H1944; first compound 1.265 µM", "result": 0.402},
      {"measurement": "relative viability", "setting": "NCI-H2023; first compound 0.04 µM", "result": 0.191},
      {"measurement": "relative viability", "setting": "NCI-H2023; first compound 0.1265 µM", "result": 0.243},
      {"measurement": "relative viability", "setting": "NCI-H2023; first compound 0.4 µM", "result": 0.216},
      {"measurement": "relative viability", "setting": "NCI-H2023; first compound 1.265 µM", "result": 0.17},
      {"measurement": "relative viability", "setting": "NCI-H2085; first compound 0.04 µM", "result": 0.588},
      {"measurement": "relative viability", "setting": "NCI-H2085; first compound 0.1265 µM", "result": 0.548},
      {"measurement": "relative viability", "setting": "NCI-H2085; first compound 0.4 µM", "result": 0.56},
      {"measurement": "relative viability", "setting": "NCI-H2085; first compound 1.265 µM", "result": 0.366},
      {"measurement": "relative viability", "setting": "NCI-H2087; first compound 0.04 µM", "result": 0.263},
      {"measurement": "relative viability", "setting": "NCI-H2087; first compound 0.1265 µM", "result": 0.273},
      {"measurement": "relative viability", "setting": "NCI-H2087; first compound 0.4 µM", "result": 0.351},
      {"measurement": "relative viability", "setting": "NCI-H2087; first compound 1.265 µM", "result": 0.364},
      {"measurement": "relative viability", "setting": "NCI-H2405; first compound 0.04 µM", "result": 0.71},
      {"measurement": "relative viability", "setting": "NCI-H2405; first compound 0.1265 µM", "result": 0.762},
      {"measurement": "relative viability", "setting": "NCI-H2405; first compound 0.4 µM", "result": 0.676},
      {"measurement": "relative viability", "setting": "NCI-H2405; first compound 1.265 µM", "result": 0.515},
      {"measurement": "relative viability", "setting": "NCI-H322M; first compound 0.04 µM", "result": 0.772},
      {"measurement": "relative viability", "setting": "NCI-H322M; first compound 0.1265 µM", "result": 0.704},
      {"measurement": "relative viability", "setting": "NCI-H322M; first compound 0.4 µM", "result": 0.723},
      {"measurement": "relative viability", "setting": "NCI-H322M; first compound 1.265 µM", "result": 0.66},
      {"measurement": "relative viability", "setting": "NCI-H520; first compound 0.04 µM", "result": 0.493},
      {"measurement": "relative viability", "setting": "NCI-H520; first compound 0.1265 µM", "result": 0.489},
      {"measurement": "relative viability", "setting": "NCI-H520; first compound 0.4 µM", "result": 0.5},
      {"measurement": "relative viability", "setting": "NCI-H520; first compound 1.265 µM", "result": 0.358},
      {"measurement": "relative viability", "setting": "NCI-H650; first compound 0.04 µM", "result": 0.284},
      {"measurement": "relative viability", "setting": "NCI-H650; first compound 0.1265 µM", "result": 0.317},
      {"measurement": "relative viability", "setting": "NCI-H650; first compound 0.4 µM", "result": 0.329},
      {"measurement": "relative viability", "setting": "NCI-H650; first compound 1.265 µM", "result": 0.274},
      {"measurement": "relative viability", "setting": "SK-MES-1; first compound 0.04 µM", "result": 0.335},
      {"measurement": "relative viability", "setting": "SK-MES-1; first compound 0.1265 µM", "result": 0.398},
      {"measurement": "relative viability", "setting": "SK-MES-1; first compound 0.4 µM", "result": 0.363},
      {"measurement": "relative viability", "setting": "SK-MES-1; first compound 1.265 µM", "result": 0.328},
      {"measurement": "relative viability", "setting": "UMC-11; first compound 0.04 µM", "result": 0.653},
      {"measurement": "relative viability", "setting": "UMC-11; first compound 0.1265 µM", "result": 0.565},
      {"measurement": "relative viability", "setting": "UMC-11; first compound 0.4 µM", "result": 0.497},
      {"measurement": "relative viability", "setting": "UMC-11; first compound 1.265 µM", "result": 0.626}
    ]}
  ]
}
